Experimental data reported in patent US4347252A, “Rodenticidal 1-(3,5-bistrifluoromethylphenyl)-3-(4-t-butylpiperidino)prop-1-yne” (priority 1980, dated 1982).

Experiments:
mice (laboratory strain) = assay: Acute Oral Toxicity in Mice (Laboratory Strain); type: in vivo; conditions: for LD50 (acute oral): aqueous suspension; for Observations: signs of poisoning: prior to death / after dosing
Procedure: Acute Oral Toxicity in Mice (Laboratory Strain)
Groups of mice were dosed orally with graded doses of the test compound in aqueous suspension and observed until there had been no deaths for at least three days. The acute oral LD50, that is to say the dose in mg/kg animal body weight necessary to kill 50% of the mice, was determined from the numbers of animals for each dose which died during the observation period by reference to published tables.

[1] = test system: Warfarin-resistant rats (Rattus norvegicus); assay: Field Tests on Rats on three farms; type: in vivo
Procedure: Field Tests on Rats (Rattus norvegicus)
Field tests were carried out on warfarin-resistant rats on three farms. Baits were prepared from either medium oatmeal or soaked wheat in which was incorporated 0.1% by weight of the test compound used in Test 2 hereinbefore described. […] The amount of bait eaten per day was determined by weighing and the presence or absence of rats was deduced from the amount of bait eaten and by counting the traces of the presence of rats in patches of dust laid for this purpose.

mice (Mus musculus) [2] = assay: Laboratory Feeding Tests on Mice in Pens, Test 3(a), poisoned bait alone; type: in vivo; conditions: 0.1% by weight in bait
Procedure: (§1) Laboratory Feeding Tests on Mice in Pens
(§2) A bait comprising oatmeal, wholemeal flour and corn oil (plain bait) and a bait of similar composition but incorporating 0.1% by weight of the test compound used in Test 2 hereinbefore described (poisoned bait) were prepared and used in the following tests on mice (Mus musculus) housed in pens.
The poisoned bait alone was offered to 4 male and 4 female mice.

[3] = test system: Wild Rats (Rattus norvegicus); assay: Laboratory Simulated Field Test on Wild Rats in confinement; type: in vivo; conditions: for Total bait eaten: poisoned + plain
Source text: Laboratory Simulated Field Test on Wild Rats (Rattus norvegicus) in confinement
One male and nine female rats were given the choice of two feeding points, at each of which the animals were offered a bait consisting of medium oatmeal (95%) and wholemeal flour (5%) (plain bait). After a period of six days during which the plain bait was offered at both feeding points, the plain bait was replaced at one of the feeding points by a bait of the same composition in which 0.1% by weight of the test compound used in Test 2 hereinbefore described had been incorporated (poisoned bait), while the plain bait continued to be offered at the other feeding point.

[4] = test system: Warfarin-resistant mice (Mus musculus); assay: Laboratory Feeding Tests on Wild Rodents: mice; type: in vivo; conditions: 0.1% by weight in bait
Source text: (§3) Laboratory Feeding Tests on Wild Rodents
(§4) Warfarin-resistant rats (Rattus norvegicus) and mice (Mus musculus) from wild populations were fed, in the laboratory, on a bait consisting of coarse oatmeal (90%), wholemeal flour (5%) and corn oil (5%). After feeding for four days on this bait, it was replaced by a treated bait of the same composition, in which 0.1% by weight of the test compound 1-(3,5-bistrifluoromethylphenyl)-3-(4-tert-butylpiperidino)prop-1-yne hydrochloride had been incorporated.

mice (Mus musculus) [5] = assay: Laboratory Feeding Tests on Mice in Pens, Test 3(b), choice of poisoned and plain bait; type: in vivo
Procedure: as §1, §2
A choice of poisoned and plain bait was offered to groups of mice.

mice (Mus musculus) [6] = assay: Field Test on Mice; type: in vivo
Procedure: Field Test on Mice (Mus musculus)
(1) A non-toxic bait was laid at 3 mouse-infested sites and the amount of bait eaten was determined by weighing. (2) The non-toxic bait was then withdrawn and replaced by a similar bait in which was incorporated 0.1% by weight of the test compound used in Test 2 hereinbefore described (poisoned bait). The amount of poisoned bait which was eaten was similarly determined by weighing over a period of three weeks. (3) The poisoned bait was then withdrawn and replaced by the non-toxic bait and the amount of non-toxic bait which was eaten was also similarly determined by weighing. The results obtained are given in following Table 6, the degree of control being calculated by a comparison of the amounts of non-toxic bait which were eaten during the periods before and after use of the poisoned bait.

[7] = test system: Warfarin-resistant rats (Rattus norvegicus); assay: Laboratory Feeding Tests on Wild Rodents: rats; type: in vivo; conditions: 0.1% by weight in bait
Source text: as §3, §4

SMILES: CC(C)(C)C1CCN(CC#Cc2cc(C(F)(F)F)cc(C(F)(F)F)c2)CC1 [Compound of formula I as free base, 1-(3,5-bistrifluoromethylphenyl)-3-(4-tert-butylpiperidino)prop-1-yne]
- major symptom of toxicity (rodents; in vivo): sedation is the major symptom of toxicity
- manner of death of treated animals (rodents; in vivo): die quietly, without exhibiting signs of distress
- period of delay between ingestion and death compared with anticoagulant rodenticides (rodents; vs anticoagulant rodenticides): shorter
- toxicity to strains of rodents resistant to anticoagulant rodenticides (rodents; vs strains which do not possess this resistance): equally as toxic
- LD50 (acute oral) (mice (laboratory strain)): 68 mg/kg animal body weight
- Observations: signs of poisoning (mice (laboratory strain)): Some signs of poisoning

SMILES: CC(C)(C)C1CCN(CC#Cc2cc(C(F)(F)F)cc(C(F)(F)F)c2)CC1.Cl [1-(3,5-bistrifluoromethylphenyl)-3-(4-tert-butylpiperidino)prop-1-yne hydrochloride]
- Total number of dead rats observed during test ([1]; Farm 1): 44
- Amount of bait eaten ([1]; Farm 1, Day 1, 0.1% by weight in bait): 2060 g
- Amount of bait eaten ([1]; Farm 1, Day 2): 440 g
- Amount of bait eaten ([1]; Farm 1, Day 3): 130 g
- Amount of bait eaten ([1]; Farm 1, Day 4): 60 g
- Amount of bait eaten ([1]; Farm 1, Day 6): 245 g
- Amount of bait eaten ([1]; Farm 1, Day 7): 130 g
- Amount of bait eaten ([1]; Farm 1, Day 8): 85 g
- Amount of bait eaten ([1]; Farm 1, Day 9): 30 g
- Amount of bait eaten ([1]; Farm 1, Day 10): 10 g
- Amount of bait eaten ([1]; Farm 1, Day 11): 40 g
- Amount of bait eaten ([1]; Farm 1, Day 14): 65 g
- Total number of dead rats observed during test ([1]; Farm 2): 8
- Amount of bait eaten ([1]; Farm 2, Day 1, 0.1% by weight in bait): 1455 g
- Amount of bait eaten ([1]; Farm 2, Day 2): 1100 g
- Amount of bait eaten ([1]; Farm 2, Day 3): 730 g
- Amount of bait eaten ([1]; Farm 2, Day 4): 210 g
- Amount of bait eaten ([1]; Farm 2, Day 7): 405 g
- Amount of bait eaten ([1]; Farm 2, Day 8): 135 g
- Amount of bait eaten ([1]; Farm 2, Day 9): 40 g
- Amount of bait eaten ([1]; Farm 2, Day 10): 30 g
- Amount of bait eaten ([1]; Farm 2, Day 11): 10 g
- Amount of bait eaten ([1]; Farm 2, Day 14): 95 g
- Amount of bait eaten ([1]; Farm 2, Day 15): 45 g
- Amount of bait eaten ([1]; Farm 2, Day 16): 0 g
- Total number of dead rats observed during test ([1]; Farm 3): 113
- Amount of bait eaten ([1]; Farm 3, Day 1, 0.1% by weight in bait): 4800 g
- Amount of bait eaten ([1]; Farm 3, Day 2): 2680 g
- Amount of bait eaten ([1]; Farm 3, Day 3): 360 g
- Amount of bait eaten ([1]; Farm 3, Day 4): 445 g
- Amount of bait eaten ([1]; Farm 3, Day 7): 565 g
- Amount of bait eaten ([1]; Farm 3, Day 8): 205 g
- Amount of bait eaten ([1]; Farm 3, Day 9): 185 g
- Amount of bait eaten ([1]; Farm 3, Day 10): 65 g
- Amount of bait eaten ([1]; Farm 3, Day 11): 15 g
- rats initially present on the farms killed (estimated) ([1]; by the fourth day of the tests): about 80%
- percentage kill compared with anticoagulant rodenticides ([1]; by the fourth day, vs usual kill with anticoagulant rodenticides used similarly): significantly higher percentage kill
- Days to Death, Mean (mice (Mus musculus) [2]): 5.5 days
- Mortality (mice (Mus musculus) [2]): 100%
- Quantity of poisoned bait eaten (mice (Mus musculus) [2]; Day 1, 4 male and 4 female mice): 19.1 g
- Quantity of poisoned bait eaten (mice (Mus musculus) [2]; Day 2): 18.8 g
- Quantity of poisoned bait eaten (mice (Mus musculus) [2]; Day 3): 15.4 g
- Quantity of poisoned bait eaten (mice (Mus musculus) [2]; Days 4-7): 13.7 g
- Quantity of bait eaten, Feeding Point A, Poisoned bait ([3]; Day 1, 0.1% by weight in bait): 99.7 g
- Quantity of bait eaten, Feeding Point B, Plain bait ([3]; Day 1 of offering poisoned bait at Point A): 80.1 g
- Quantity of bait eaten, Feeding Point A, Poisoned bait ([3]; Day 2): 95.2 g
- Quantity of bait eaten, Feeding Point B, Plain bait ([3]; Day 2 of offering poisoned bait at Point A): 65.9 g
- Quantity of bait eaten, Feeding Point A, Poisoned bait ([3]; Day 3): 19.8 g
- Quantity of bait eaten, Feeding Point B, Plain bait ([3]; Day 3 of offering poisoned bait at Point A): 67.4 g
- Cumulative mortality ([3]; Day 4): 30%
- Quantity of bait eaten, Feeding Point A, Poisoned bait ([3]; Day 4): 5.1 g
- Quantity of bait eaten, Feeding Point B, Plain bait ([3]; Day 4 of offering poisoned bait at Point A): 38.1 g
- Quantity of bait eaten, Feeding Point A, Poisoned bait ([3]; Day 5): 1.8 g
- Quantity of bait eaten, Feeding Point B, Plain bait ([3]; Day 5 of offering poisoned bait at Point A): 27.7 g
- Cumulative mortality ([3]; Day 6): 60%
- Quantity of bait eaten, Feeding Point B, Plain bait ([3]; Day 6 of offering poisoned bait at Point A): 19.3 g
- Cumulative mortality ([3]; Day 7): 70%
- Quantity of bait eaten, Feeding Point B, Plain bait ([3]; Day 7 of offering poisoned bait at Point A): 4.0 g
- Cumulative mortality ([3]; Day 8): 80%
- Quantity of bait eaten, Feeding Point B, Plain bait ([3]; Day 8 of offering poisoned bait at Point A): 6.5 g
- Cumulative mortality ([3]; Day 9): 90%
- Quantity of bait eaten, Feeding Point A, Poisoned bait ([3]; Day 9): 1.3 g
- Quantity of bait eaten, Feeding Point B, Plain bait ([3]; Day 9 of offering poisoned bait at Point A): 3.7 g
- Quantity of bait eaten, Feeding Point A, Poisoned bait ([3]; Day 11): 0.7 g
- Quantity of bait eaten, Feeding Point B, Plain bait ([3]; Day 11 of offering poisoned bait at Point A): 0.7 g
- Cumulative mortality ([3]; Day 12): 100%
- Total bait eaten ([3]; Day 1): 179.8 g
- Total bait eaten ([3]; Day 2): 161.1 g
- Total bait eaten ([3]; Day 3): 97.2 g
- Total bait eaten ([3]; Day 4): 43.2 g
- Total bait eaten ([3]; Day 5): 29.5 g
- Total bait eaten ([3]; Day 6): 19.3 g
- Total bait eaten ([3]; Day 7): 4.0 g
- Total bait eaten ([3]; Day 8): 6.5 g
- Total bait eaten ([3]; Day 9): 5.0 g
- Total bait eaten ([3]; Day 11): 1.4 g
- Days to Death, Mean ([4]; female mice): 5.8 days
- Mortality ([4]; female mice): 5/5
- Days to Death, Mean ([4]; male mice): 6.2 days
- Mortality ([4]; male mice): 5/5
- Mortality (mice (Mus musculus) [5]; 15 mice in pen): 93.7%
- Quantity of poisoned bait eaten (mice (Mus musculus) [5]; 15 mice in pen, Days 1 to 7): 43.0 g
- Quantity of poisoned bait eaten (mice (Mus musculus) [5]; 15 mice in pen, Days 8 to 14): 1.2 g
- Quantity of poisoned bait eaten (mice (Mus musculus) [5]; 15 mice in pen, Days 15 to 21): 0.3 g
- Mortality (mice (Mus musculus) [5]; 16 mice in pen (first line)): 93.8%
- Quantity of poisoned bait eaten (mice (Mus musculus) [5]; 16 mice in pen (first line), Days 1 to 7): 55.0 g
- Quantity of poisoned bait eaten (mice (Mus musculus) [5]; 16 mice in pen (first line), Days 8 to 14): 0.5 g
- Quantity of poisoned bait eaten (mice (Mus musculus) [5]; 16 mice in pen (first line), Days 15 to 21): 0.0 g
- Mortality (mice (Mus musculus) [5]; 16 mice in pen (fourth line)): 93.8%
- Quantity of poisoned bait eaten (mice (Mus musculus) [5]; 16 mice in pen (fourth line), Days 1 to 7): 25.7 g
- Quantity of poisoned bait eaten (mice (Mus musculus) [5]; 16 mice in pen (fourth line), Days 8 to 14): 2.0 g
- Quantity of poisoned bait eaten (mice (Mus musculus) [5]; 16 mice in pen (fourth line), Days 15 to 21): 0.3 g
- Mortality (mice (Mus musculus) [5]; 24 mice in pen): 91.7%
- Quantity of poisoned bait eaten (mice (Mus musculus) [5]; 24 mice in pen, Days 1 to 7): 42.3 g
- Quantity of poisoned bait eaten (mice (Mus musculus) [5]; 24 mice in pen, Days 8 to 14): 3.5 g
- Quantity of poisoned bait eaten (mice (Mus musculus) [5]; 24 mice in pen, Days 15 to 21): 0.7 g
- Estimated Control (mice (Mus musculus) [6]; Site 1): 98.8%
- Amount of non-toxic bait eaten per week in period following use of poisoned bait (mice (Mus musculus) [6]; Site 1 (912 g per week before)): 11 g
- Amount of poisoned bait eaten (mice (Mus musculus) [6]; Site 1, Week 1, 0.1% by weight in bait): 368 g
- Amount of poisoned bait eaten (mice (Mus musculus) [6]; Site 1, Week 2): 1 g
- Estimated Control (mice (Mus musculus) [6]; Site 2): 98.9%
- Amount of non-toxic bait eaten per week in period following use of poisoned bait (mice (Mus musculus) [6]; Site 2 (897 g per week before)): 10 g
- Amount of poisoned bait eaten (mice (Mus musculus) [6]; Site 2, Week 1, 0.1% by weight in bait): 441 g
- Amount of poisoned bait eaten (mice (Mus musculus) [6]; Site 2, Week 2): 0 g
- Estimated Control (mice (Mus musculus) [6]; Site 3): 100%
- Amount of non-toxic bait eaten per week in period following use of poisoned bait (mice (Mus musculus) [6]; Site 3 (1880 g per week before)): 0 g
- Amount of poisoned bait eaten (mice (Mus musculus) [6]; Site 3, Week 1, 0.1% by weight in bait): 929 g
- Amount of poisoned bait eaten (mice (Mus musculus) [6]; Site 3, Week 2): 115 g
- Amount of poisoned bait eaten (mice (Mus musculus) [6]; Site 3, Week 3): 11 g
- LD50 (acute oral) (mice (laboratory strain)): 23 mg/kg animal body weight
- Observations: signs of poisoning (mice (laboratory strain)): no marked signs
- Days to Death, Mean ([7]; female rats): 5.8 days
- Mortality ([7]; female rats): 5/5
- Days to Death, Mean ([7]; male rats): 7.2 days
- Mortality ([7]; male rats): 5/5
